The compounds below were run against Carbonic anhydrase 7 (Homo sapiens) (UniProt P43166) (assay: Activation of human carbonic anhydrase VII by stopped flow CO2 hydrase assay). Conditions: Brain, filed as activator.
Chain of Carbonic anhydrase 7 (Homo sapiens) (P43166 whole entry): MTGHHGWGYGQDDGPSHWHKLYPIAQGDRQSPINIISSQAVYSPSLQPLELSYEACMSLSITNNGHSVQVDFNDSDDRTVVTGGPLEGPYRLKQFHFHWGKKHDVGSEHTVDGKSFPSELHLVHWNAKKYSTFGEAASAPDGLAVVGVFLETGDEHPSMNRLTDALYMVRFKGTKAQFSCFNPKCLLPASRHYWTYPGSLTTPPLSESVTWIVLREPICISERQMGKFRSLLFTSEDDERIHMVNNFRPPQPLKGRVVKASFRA

**Q.** `c1cc(C2NCCc3nc[nH]c32)cc(C2NCCc3nc[nH]c32)c1` (stereo not drawn) was tested. Which Ka did it give?
**A.** 0.039 µM

**Q.** Which Ka does the source give for `C(=N/CCc1c[nH]cn1)/c1cccc(/C=N/CCc2c[nH]cn2)c1` here?
**A.** 18.7 µM

**Q.** How did the Ka turn out when `C(=N\CCc1c[nH]cn1)/c1ccc(/C=N/CCc2c[nH]cn2)cc1` was run?
**A.** 9.02 µM

**Q.** Which Ka does the source give for `C(=N/CCc1c[nH]cn1)/c1ccc(/C=N/CCc2c[nH]cn2)o1` here?
**A.** 0.085 µM

**Q.** `c1nc2c([nH]1)C(c1ccc(C3NCCc4nc[nH]c43)o1)NCC2` (stereo not drawn) was tested. Which Ka did it give?
**A.** 0.035 µM

**Q.** Which Ka does the source give for `NCCc1c[nH]cn1` here?
**A.** 37.6 µM

**Q.** With `c1nc2c([nH]1)C(c1ccc(C3NCCc4nc[nH]c43)cc1)NCC2` (stereo not drawn) as the compound, how does the Ka read?
**A.** 0.032 µM

**Q.** How did the Ka turn out when `C(=N/CCc1c[nH]cn1)/c1ccccc1/C=N/CCc1c[nH]cn1` was run?
**A.** 21.3 µM

From ChEMBL document CHEMBL4825707, “Quantum mechanical study on the activation mechanism of human carbonic anhydrase VII cluster model with bis-histamine schiff bases and bis-spinaceamine derivatives” (Bioorg Med Chem, 2021)
